Legend:
[1] = target: Biotinylated KRAS G12C protein (Homo sapiens (Human), UniProt P01116, C118S/C51S/C80L/G12C); assay: SOS-catalyzed nucleotide exchange assay (TR-FRET); format: biochemical; details: in vitro apparent potency; preincubation time of 60 minutes prior to addition of SOS
Method in brief: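 Biotinylated KRAS G12C preloaded with Bodipy-GDP and Tb-streptavidin, then incubated with compound (10-point, 3-fold series) for 60 min at RT. Exchange started with SOS and GTP for 60 min. TR-FRET 520/495 ratio normalised to DMSO and saturating-inhibitor controls; four-parameter fit.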

phospho-ERK = assay: Cellular phospho-ERK assay; format: cell-based; details: NCI-H358 cells; 2 hour incubation; ratio of p-Erk vs total Erk; read-out: IC50 (nM) pERK (Cell)
Method in brief: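 NCI-H358 cells seeded overnight, then exposed to compound dose-response titrations for 2 hours at 37° C. in RPMI. Lysates assayed by AlphaLISA SureFire Ultra multiplex for p-Erk and total Erk; ratio p-Erk/total Erk used as readout, IC50 from 4-parameter logistic fit.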

Compound | IC50 [1] | IC50 (phospho-ERK)
C=CC(=O)N1CC(C)N(c2nc(=O)n3c4nc(c(Cl)cc24)-c2c(F)cccc2COCCc2ccnc(C(C)C)c2-3)CC1C [Example 109, 20-chloro-2-[(2S,5R)-2,5-dimethyl-4-(prop-2-enoyl)piperazin-1-yl]-17-fluoro-6-(propan-2-yl)-10,11-dihydro-1,18-ethenopyrido[3,4-e]pyrimido[6,1-c][9,2,4]benzoxadiazacyclododecin-4(13H)-one] | 2.3 nM | 21 nM
C=CC(=O)N1CC(C)N(c2nc(=O)n3c4nc(c(C)cc24)-c2c(F)ccc(F)c2OCCOc2ccnc(C(C)C)c2-3)CC1C [Example 110, 2-[(2S,5R)-2,5-dimethyl-4-(prop-2-enoyl)piperazin-1-yl]-14,17-difluoro-20-methyl-6-(propan-2-yl)-11,12-dihydro-4H-1,18-ethenopyrido[4,3-e]pyrimido[1,6-g][1,4,7,9]benzodioxadiazacyclododecin-4-one] | 4.5 nM | 23 nM
C=CC(=O)N1C[C@H](C)N(c2nc(=O)n3c4nc(c(F)cc24)-c2c(F)ccc(F)c2OCCOc2ccnc(C4CC4)c2-3)C[C@H]1C [Example 111, 6-cyclopropyl-2-[(2S,5R)-2,5-dimethyl-4-(prop-2-enoyl)piperazin-1-yl]-14,17,20-trifluoro-11,12-dihydro-4H-1,18-ethenopyrido[4,3-e]pyrimido[1,6-g][1,4,7,9]benzodioxadiazacyclododecin-4-one] | 17 nM | 154 nM
C=CC(=O)N1C[C@H](C)N(c2nc(=O)n3c4nc(c(F)cc24)-c2cccc(O)c2OCCCc2ccnc(C(C)C)c2-3)C[C@H]1C [Example 113, 2-[(2S,5R)-2,5-dimethyl-4-(prop-2-enoyl)piperazin-1-yl]-20-fluoro-14-hydroxy-6-(propan-2-yl)-11,12-dihydro-4H,10H-1,18-(ethanediylidene)pyrido[4,3-e]pyrimido[1,6-g][1,7,9]benzoxadiazacyclododecin-4-one] | 33 nM | 113 nM
C=CC(=O)N1C[C@H](C)N(c2nc(=O)n3c4nc(c(F)cc24)-c2cccc(F)c2OCCOc2ccnc(C(C)C)c2-3)C[C@H]1C [Example 114, 2-[(2S,5R)-2,5-dimethyl-4-(prop-2-enoyl)piperazin-1-yl]-14,20-difluoro-6-(propan-2-yl)-11,12-dihydro-4H-1,18-(ethanediylidene)pyrido[4,3-e]pyrimido[1,6-g][1,4,7,9]benzodioxadiazacyclododecin-4-one] | 43 nM | 112 nM
C=CC(=O)N1CC(C)N(c2nc(=O)n3c4nc(c(F)cc24)-c2c(F)cccc2COCCc2ccnc(C(C)C)c2-3)CC1C [Example 115, 2-[(2S,5R)-2,5-dimethyl-4-(prop-2-enoyl)piperazin-1-yl]-17,20-difluoro-6-(propan-2-yl)-10,11-dihydro-1,18-ethenopyrido[3,4-e]pyrimido[6,1-c][9,2,4]benzoxadiazacyclododecin-4(13H)-one] | 237 nM | 1020 nM
C=CC(=O)N1C[C@H](C)N(c2nc(=O)n3c4nc(c(F)cc24)-c2cccc(C(F)(F)F)c2OCCOc2ccnc(C(C)C)c2-3)C[C@H]1C [Example 116, 2-[(2S,5R)-2,5-dimethyl-4-(prop-2-enoyl)piperazin-1-yl]-20-fluoro-6-(propan-2-yl)-14-(trifluoromethyl)-11,12-dihydro-4H-1,18-ethenopyrido[4,3-e]pyrimido[1,6-g][1,4,7,9]benzodioxadiazacyclododecin-4-one] | 1100 nM | 2730 nM
C=CC(=O)N1CCN(c2nc(=O)n3c4nc(c(F)cc24)-c2c(F)cccc2CC[C@@H](O)Cc2ccnc(C(C)C)c2-3)[C@@H](C)C1 [Example 118-2, 17,20-difluoro-11-hydroxy-2-[(2S)-2-methyl-4-(prop-2-enoyl)piperazin-1-yl]-6-(propan-2-yl)-10,11,12,13-tetrahydro-4H-1,18-ethenopyrido[3,4-e]pyrimido[6,1-c][2,4]benzodiazacyclododecin-4-one] | 54 nM | 1220 nM
C=C(C#N)C(=O)N1C[C@H](C)N(c2nc(=O)n3c4nc(c(Cl)cc24)-c2c(F)ccc(F)c2OCCCc2ccnc(C(C)C)c2-3)C[C@H]1C [Example 121, 2-{(2R,5S)-4-[20-chloro-14,17-difluoro-4-oxo-6-(propan-2-yl)-11,12-dihydro-4H,10H-1,18-ethenopyrido[4,3-e]pyrimido[1,6-g][1,7,9]benzoxadiazacyclododecin-2-yl]-2,5-dimethylpiperazine-1-carbonyl}prop-2-enenitrile] | 195 nM | > 30000 nM
[(2S)-4-[17,20-difluoro-4- oxo-6-(propan-2-yl)-11,12- dihydro-4H-1,18- (ethanediylidene)pyrido[4,3- e]pyrimido[1,6-g][1,4,7,9] benzodioxadiazacyclo- dodecin-2-yl]-1-(prop-2- enoyl)piperazin-2- yl]acetonitrile [Example 14a] | 8.1 nM | 1240 nM

Source: patent US20240043448A1, “Small Molecule Inhibitors of KRAS G12C Mutant” (Merck Sharp & Dohme LLC, priority 2019, published 2024)
